Reference: patent US9737504B2, “Dihydroorotic and acid dehydrogenase inhibitor” (NAI INC., priority 2012, dated 2017)
Like-named read-outs stand apart in the source and are kept apart here.

Key:
NCI-H226 = assay: JFCR39 cancer cell growth inhibition test, NCI-H226; type: cell-based; settings: Homo sapiens; NCI-H226, Lu (Lung)
SF-539 = assay: JFCR39 cancer cell growth inhibition test, SF-539; type: cell-based; settings: Homo sapiens; SF-539, CNS (Central Nervous Systems)
SNB-78 = assay: JFCR39 cancer cell growth inhibition test, SNB-78; type: cell-based; settings: Homo sapiens; SNB-78, CNS (Central Nervous Systems)
L0X-IMVI = assay: JFCR39 cancer cell growth inhibition test, L0X-IMVI; type: cell-based; settings: Homo sapiens, Me (Melanoma)
NCI-H460 = assay: JFCR39 cancer cell growth inhibition test, NCI-H460; type: cell-based; settings: Homo sapiens; NCI-H460, Lu (Lung)
MKN28 = assay: JFCR39 cancer cell growth inhibition test, MKN28; type: cell-based; settings: Homo sapiens, MKN-28; MKN28, St (Stomac)
SF-295 = assay: JFCR39 cancer cell growth inhibition test, SF-295; type: cell-based; settings: Homo sapiens; SF-295, CNS (Central Nervous Systems)
RXF-631L = assay: JFCR39 cancer cell growth inhibition test, RXF-631L; type: cell-based; settings: Homo sapiens, Re (Renal)
human DHOD [1] = target: T1, human DHOD (Homo sapiens, UniProt Q02127); assay: Measurement of DHOD inhibitory activity (DCIP reduction, end point assay); type: biochemical; settings: read-out: DHOD inhibition rate (%) 100 nM; 100 nM compound
T1 sequence (Q02127 whole entry): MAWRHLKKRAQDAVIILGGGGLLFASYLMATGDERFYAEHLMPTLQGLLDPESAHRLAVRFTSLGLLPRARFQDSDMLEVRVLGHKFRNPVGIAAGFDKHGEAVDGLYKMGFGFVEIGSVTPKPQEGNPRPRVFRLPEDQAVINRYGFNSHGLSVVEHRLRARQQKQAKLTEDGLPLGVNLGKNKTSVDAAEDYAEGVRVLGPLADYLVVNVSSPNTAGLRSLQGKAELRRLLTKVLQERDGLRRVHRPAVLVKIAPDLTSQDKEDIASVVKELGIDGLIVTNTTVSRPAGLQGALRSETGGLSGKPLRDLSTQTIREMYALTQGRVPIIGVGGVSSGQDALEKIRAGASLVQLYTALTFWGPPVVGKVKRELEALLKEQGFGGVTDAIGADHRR

SNB-75 = assay: JFCR39 cancer cell growth inhibition test, SNB-75; type: cell-based; settings: Homo sapiens; SNB-75, CNS (Central Nervous Systems)
[2] = tested on: Panc-1 cells (human pancreatic cells); assay: Inhibitory effect on Panc-1 cells, control vs hypoxic and subnutritional conditions; type: cell-based; settings: for IC50: Homo sapiens
Method: For these reasons, cells of colorectal and pancreatic cancers, each being regarded as intractable, were used to test the inhibitory effect of compounds under hypoxic and subnutritional conditions. Moreover, the same test was also performed on normal skin cells.
The cells used were two types of cancer cells, i.e., DLD-1 cells (human colorectal cancer cells) and Panc-1 cells (human pancreatic cells), as well as HDF cells (human dermal fibroblast cells). Culture conditions were set as follows: 21% oxygen with glucose and […] (10% FBS) for the control group, and 1% oxygen without glucose and […] (10% FBS) for the hypoxic and subnutritional group. The results obtained are shown in Tables 3, 4 and 5, as well as FIGS. 1, 2 and 3.

SF-268 = assay: JFCR39 cancer cell growth inhibition test, SF-268; type: cell-based; settings: Homo sapiens; SF-268, CNS (Central Nervous Systems)
HBC-5 = assay: JFCR39 cancer cell growth inhibition test, HBC-5; type: cell-based; settings: Homo sapiens, HBC5; HBC-5, Br (Breast)
OVCAR-8 = assay: JFCR39 cancer cell growth inhibition test, OVCAR-8; type: cell-based; settings: Homo sapiens; OVCAR-8, Ov (Ovarian)
MKN45 = assay: JFCR39 cancer cell growth inhibition test, MKN45; type: cell-based; settings: Homo sapiens, MKN-45; MKN45, St (Stomac)
DMS114 = assay: JFCR39 cancer cell growth inhibition test, DMS114; type: cell-based; settings: Homo sapiens, DMS-114; DMS114, Lu (Lung)
MKN1 = assay: JFCR39 cancer cell growth inhibition test, MKN1; type: cell-based; settings: Homo sapiens, MKN-1; MKN1, St (Stomac)
NCI-H23 = assay: JFCR39 cancer cell growth inhibition test, NCI-H23; type: cell-based; settings: Homo sapiens; NCI-H23, Lu (Lung)
OVCAR-5 = assay: JFCR39 cancer cell growth inhibition test, OVCAR-5; type: cell-based; settings: Homo sapiens; OVCAR-5, Ov (Ovarian)
PC-3 = assay: JFCR39 cancer cell growth inhibition test, PC-3; type: cell-based; settings: Homo sapiens; PC-3, xPg (Prostate)
human DHOD [3] = target: T1, human DHOD; assay: Measurement of DHOD inhibitory activity (DCIP reduction, end point assay); type: biochemical
Method: The compounds of the present invention were used and measured for their DHOD inhibitory activity at concentrations of 200 nM and 1000 nM.
Reduction of DCIP was measured at 600 nm over 20 minutes.

HCT-116 = assay: JFCR39 cancer cell growth inhibition test, HCT-116; type: cell-based; settings: Homo sapiens; HCT-116, Co (Colon)
St-4 = assay: JFCR39 cancer cell growth inhibition test, St-4; type: cell-based; settings: Homo sapiens; St-4, St (Stomac)
HCT-15 = assay: JFCR39 cancer cell growth inhibition test, HCT-15; type: cell-based; settings: Homo sapiens; HCT-15, Co (Colon)
DMS273 = assay: JFCR39 cancer cell growth inhibition test, DMS273; type: cell-based; settings: Homo sapiens, DMS-273; DMS273, Lu (Lung)
HCC2998 = assay: JFCR39 cancer cell growth inhibition test, HCC2998; type: cell-based; settings: Homo sapiens, HCC 2998; HCC2998, Co (Colon)
ACHN = assay: JFCR39 cancer cell growth inhibition test, ACHN; type: cell-based; settings: Homo sapiens, Re (Renal)
U251 = assay: JFCR39 cancer cell growth inhibition test, U251; type: cell-based; settings: Homo sapiens, U-251; U251, CNS (Central Nervous Systems)
KM-12 = assay: JFCR39 cancer cell growth inhibition test, KM-12; type: cell-based; settings: Homo sapiens, KM12; KM-12, Co (Colon)
HT-29 = assay: JFCR39 cancer cell growth inhibition test, HT-29; type: cell-based; settings: Homo sapiens; HT-29, Co (Colon)
SK-OV-3 = assay: JFCR39 cancer cell growth inhibition test, SK-OV-3; type: cell-based; settings: Homo sapiens; SK-OV-3, Ov (Ovarian)
DU-145 = assay: JFCR39 cancer cell growth inhibition test, DU-145; type: cell-based; settings: Homo sapiens; DU-145, xPg (Prostate)
MKN7 = assay: JFCR39 cancer cell growth inhibition test, MKN7; type: cell-based; settings: Homo sapiens, MKN-7; MKN7, St (Stomac)
MCF-7 = assay: JFCR39 cancer cell growth inhibition test, MCF-7; type: cell-based; settings: Homo sapiens, MCF7; MCF-7, Br (Breast)

Question: For `C/C(=C\Cc1c(O)c(Cl)c(C)c(C=O)c1O)CC/C=C(\C)[C@@H]1CC(=O)C(C)(C)O1` (racemic) [Ascofuranone, dl-5-Chloro-2,4-dihydroxy-6-methyl-3-[(2E,6E)-3-methyl-7-(3,3-dimethyl-4-oxo-2-oxacyclopentyl)-2,6-octadienyl]benzaldehyde], which GI50 (NCI-H226) is on record?
Answer: Its GI50 is 15 µM.

Question: What about the GI50 (SF-539) of the same compound?
Answer: Its GI50 is 1.7 µM.

Question: And the GI50 (SNB-78)?
Answer: Its GI50 is 23 µM.

Question: And the GI50 (L0X-IMVI)?
Answer: The GI50 was 2.8 µM.

Question: And the GI50 (NCI-H460)?
Answer: Its GI50 is 2 µM.

Question: And the GI50 (MKN28)?
Answer: The GI50 was 9.7 µM.

Question: And the GI50 (SF-295)?
Answer: Its GI50 is 5.3 µM.

Question: What about the GI50 (RXF-631L) of the same compound?
Answer: Its GI50 is 12 µM.

Question: And the inhibition at 0.1 µM (human DHOD [1])?
Answer: Its inhibition at 0.1 µM is 95%.

Question: What about the GI50 (SNB-75) of the same compound?
Answer: Its GI50 is 23 µM.

Question: What about the IC50 ([2]; read-out: IC50 [μM] 1% O2 glc(−)gln(−), Panc-1, 1% O2 glc(−)gln(−)) of the same compound?
Answer: Its IC50 is 1.4 µM.

Question: And the IC50 ([2]; Panc-1, 21% O2 glc(+)gln(+), read-out: IC50 [μM] 21% O2 glc(+)gln(+))?
Answer: The IC50 was greater than 100 µM.

Question: What about the “Selectivity = 21% glc(+)gln(+) IC50/1% glc(−)gln(−) IC50” value ([2]; Panc-1) of the same compound?
Answer: The value was greater than 71.

Question: And the GI50 (SF-268)?
Answer: Its GI50 is 7 µM.

Question: What about the GI50 (HBC-5) of the same compound?
Answer: Its GI50 is 28 µM.

Question: And the GI50 (OVCAR-8)?
Answer: Its GI50 is 9.5 µM.

Question: And the GI50 (MKN45)?
Answer: The GI50 was 10 µM.

Question: What about the GI50 (DMS114) of the same compound?
Answer: Its GI50 is 19 µM.

Question: And the GI50 (MKN1)?
Answer: Its GI50 is 14 µM.

Question: And the GI50 (NCI-H23)?
Answer: Its GI50 is 15 µM.

Question: What about the GI50 (OVCAR-5) of the same compound?
Answer: Its GI50 is 7.6 µM.

Question: What about the GI50 (PC-3) of the same compound?
Answer: Its GI50 is 13 µM.

Question: What about the inhibition at 0.2 µM (human DHOD [3]; read-out: DHOD inhibition rate (%) 200 nM, 200 nM compound) of the same compound?
Answer: The inhibition at 0.2 µM was 73%.

Question: And the IC50 (human DHOD [3]; read-out: IC50 (nM) human DHOD (HsDHOD))?
Answer: Its IC50 is 38 nM.

Question: And the GI50 (HCT-116)?
Answer: The GI50 was 5.1 µM.

Question: What about the GI50 (St-4) of the same compound?
Answer: Its GI50 is 14 µM.

Question: And the GI50 (HCT-15)?
Answer: The GI50 was 1.3 µM.

Question: And the GI50 (DMS273)?
Answer: Its GI50 is 5.9 µM.

Question: And the GI50 (HCC2998)?
Answer: The GI50 was 17 µM.

Question: And the GI50 (ACHN)?
Answer: The GI50 was 10 µM.

Question: And the GI50 (U251)?
Answer: Its GI50 is 1.5 µM.

Question: And the GI50 (KM-12)?
Answer: The GI50 was 9.3 µM.

Question: And the GI50 (HT-29)?
Answer: Its GI50 is 6.6 µM.

Question: What about the GI50 (SK-OV-3) of the same compound?
Answer: Its GI50 is 13 µM.

Question: What about the GI50 (DU-145) of the same compound?
Answer: The GI50 was 11 µM.

Question: What about the GI50 (MKN7) of the same compound?
Answer: Its GI50 is 15 µM.

Question: What about the GI50 (MCF-7) of the same compound?
Answer: Its GI50 is 9 µM.
